Experimental data from patent US11331369B2, “Endoparasitic depsipeptides” (Zoetis Services LLC, priority 2017, dated 2022).

Tested on: microfilariae of Dirofilaria immitis
Assay: Dirofilaria immitis, Microfilaria (DiMF) In vitro Assay
Format: cell-based
Settings: 72 h, read-out: DiMF Minimum Effective Dose (MED), approximately 72 hours incubation, microfilariae assessed for survival or paralysis

Row | Structure (SMILES) | minimal effective concentration
1 | CC(C)C[C@H]1C(=O)O[C@H](Cc2ccc(Cn3nc(CO)cc3CO)cc2)C(=O)N(C)[C@@H](CC(C)C)C(=O)O[C@H](C)C(=O)N(C)[C@@H](CC(C)C)C(=O)O[C@H](Cc2ccccc2)C(=O)N(C)[C@@H](CC(C)C)C(=O)O[C@H](C)C(=O)N1C [Example 2-42, (3S,6R,9S,12R,15S,18R,21S,24R)-6-benzyl-18-(4-((3,5-bis(hydroxymethyl)-1H-pyrazol-1-yl)methyl)benzyl)-3,9,15,21-tetraisobutyl-4,10,12,16,22,24-hexamethyl-1,7,13,19-tetraoxa-4,10,16,22-tetraazacyclotetracosan-2,5,8,11,14,17,20,23-octaone] | 0.01 to 0.1 µM
2 | Cc1ccn(Cc2ccc(C[C@H]3OC(=O)[C@H](CC(C)C)N(C)C(=O)[C@@H](C)OC(=O)[C@H](CC(C)C)N(C)C(=O)[C@@H](Cc4ccc(Cn5ccc(C)cc5=O)cc4)OC(=O)[C@H](CC(C)C)N(C)C(=O)[C@@H](C)OC(=O)[C@H](CC(C)C)N(C)C3=O)cc2)c(=O)c1 [Example 9-27, (3S,6R,9S,12R,15S,18R,21S,24R)-3,9,15,21-tetraisobutyl-4,6,10,16,18,22-hexamethyl-12,24-bis(4-((4-methyl-2-oxopyridin-1 (2H)-yl)methyl)benzyl)-1,7,13,19-tetraoxa-4,10,16,22-tetraazacyclotetracosan-2,5,8,11,14,17,20,23-octaone] | 0.01 to 0.1 µM
3 | CC(C)C[C@H]1C(=O)O[C@H](Cc2ccc(Cn3cc(OC4CCC4)cn3)cc2)C(=O)N(C)[C@@H](CC(C)C)C(=O)O[C@H](C)C(=O)N(C)[C@@H](CC(C)C)C(=O)O[C@H](Cc2ccc(Cn3cc(OC4CCC4)cn3)cc2)C(=O)N(C)[C@@H](CC(C)C)C(=O)O[C@H](C)C(=O)N1C [Example 1b-141, (3S,6R,9S,12R,15S,18R,21S,24R)-6,18-bis(4-((4-cyclobutoxy-1H-pyrazol-1-yl)methyl)benzyl)-3,9,15,21-tetraisobutyl-4,10,12,16,22,24-hexamethyl-1,7,13,19-tetraoxa-4,10,16,22-tetraazacyclotetracosan-2,5,8,11,14,17,20,23-octaone] | 0.01 to 0.1 µM
4 | CC(C)C[C@H]1C(=O)O[C@H](Cc2ccc(Cn3cc(OCCN)cn3)cc2)C(=O)N(C)[C@@H](CC(C)C)C(=O)O[C@H](C)C(=O)N(C)[C@@H](CC(C)C)C(=O)O[C@H](Cc2ccc(Cn3cc(OCCN)cn3)cc2)C(=O)N(C)[C@@H](CC(C)C)C(=O)O[C@H](C)C(=O)N1C [Example 1b-185, (3S,6R,9S,12R,15S,18R,21S,24R)-6,18-bis(4-((4-(2-aminoethoxy)-1H-pyrazol-1-yl)methyl)benzyl)-3,9,15,21-tetraisobutyl-4,10,12,16,22,24-hexamethyl-1,7,13,19-tetraoxa-4,10,16,22-tetraazacyclotetracosan-2,5,8,11,14,17,20,23-octaone] | 0.01 to 0.1 µM
5 | CC(C)C[C@H]1C(=O)O[C@H](Cc2ccc(Cn3cc(-c4nccs4)cn3)cc2)C(=O)N(C)[C@@H](CC(C)C)C(=O)O[C@H](C)C(=O)N(C)[C@@H](CC(C)C)C(=O)O[C@H](Cc2ccc(Cn3cc(-c4nccs4)cn3)cc2)C(=O)N(C)[C@@H](CC(C)C)C(=O)O[C@H](C)C(=O)N1C [Example 1b-13, (3S,6R,9S,12R,15S,18R,21S,24R)-3,9,15,21-tetraisobutyl-4,6,10,16,18,22-hexamethyl-12,24-bis(4-((4-(thiazol-2-yl)-1H-pyrazol-1-yl)methyl)benzyl)-1,7,13,19-tetraoxa-4,10,16,22-tetraazacyclotetracosan-2,5,8,11,14,17,20,23-octaone] | 0.01 to 0.1 µM
6 | CC(C)C[C@H]1C(=O)O[C@H](Cc2ccc(Cn3nc(-c4ccco4)cc3CO)cc2)C(=O)N(C)[C@@H](CC(C)C)C(=O)O[C@H](C)C(=O)N(C)[C@@H](CC(C)C)C(=O)O[C@H](Cc2ccc(Cn3nc(C#N)cc3C#N)cc2)C(=O)N(C)[C@@H](CC(C)C)C(=O)O[C@H](C)C(=O)N1C [Example 1a-3, 1-(4-(((2R,5S,8R,11S,14R,17S,20R,23S)-14-(4-((3-(furan-2-yl)-5-(hydroxymethyl)-1H-pyrazol-1-yl)methyl)benzyl)-5,11,17,23-tetraisobutyl-4,8,10,16,20,22-hexamethyl-3,6,9,12,15,18,21,24-octaoxo-1,7,13,19-tetraoxa-4,10,16,22-tetraazacyclotetracosan-2-yl)methyl)benzyl)-1H-pyrazole-3,5-dicarbonitrile] | 0.01 to 0.1 µM
7 | CC(C)C[C@H]1C(=O)O[C@H](Cc2ccc(Cn3cc(CO)nn3)cc2)C(=O)N(C)[C@@H](CC(C)C)C(=O)O[C@H](C)C(=O)N(C)[C@@H](CC(C)C)C(=O)O[C@H](Cc2ccccc2)C(=O)N(C)[C@@H](CC(C)C)C(=O)O[C@H](C)C(=O)N1C [Example 10-19, (3S,6R,9S,12R,15S,18R,21S,24R)-6-benzyl-18-(4-((4-(hydroxymethyl)-1H-1,2,3-triazol-1-yl)methyl)benzyl)-3,9,15,21-tetraisobutyl-4,10,12,16,22,24-hexamethyl-1,7,13,19-tetraoxa-4,10,16,22-tetraazacyclotetracosan-2,5,8,11,14,17,20,23-octaone] | 0.01 to 0.1 µM
8 | CC(C)C[C@H]1C(=O)O[C@H](Cc2ccc(Cn3cccc3/C(N)=N/O)cc2)C(=O)N(C)[C@@H](CC(C)C)C(=O)O[C@H](C)C(=O)N(C)[C@@H](CC(C)C)C(=O)O[C@H](Cc2ccc(Cn3cccc3C(N)=NO)cc2)C(=O)N(C)[C@@H](CC(C)C)C(=O)O[C@H](C)C(=O)N1C [Example 9-30, N′-hydroxy-1-[[4-[[(2R,5S,8R,11S,14R,17S,20R,23S)-14-[[4-[[2-[(Z)—N′-hydroxycarbamimidoyl]pyrrol-1-yl]methyl]phenyl]methyl]-5,11,17,23-tetraisobutyl-4,8,10,16,20,22-hexamethyl-3,6,9,12,15,18,21,24-octaoxo-1,7,13,19-tetraoxa-4,10,16,22-tetrazacyclotetracos-2-yl]methyl]phenyl]methyl]pyrrole-2-carboxamidine] | 0.001 to 0.01 µM
9 | CC(C)C[C@H]1C(=O)O[C@H](Cc2cccc(Cn3ccnc3)c2)C(=O)N(C)[C@@H](CC(C)C)C(=O)O[C@H](C)C(=O)N(C)[C@@H](CC(C)C)C(=O)O[C@H](Cc2ccc(Cn3ccnc3)cc2)C(=O)N(C)[C@@H](CC(C)C)C(=O)O[C@H](C)C(=O)N1C [Example 7-2, (3S,6R,9S,12R,15S,18R,21S,24R)-6-(3-((1H-imidazol-1-yl)methyl)benzyl)-18-(4-((1H-imidazol-1-yl)methyl)benzyl)-3,9,15,21-tetraisobutyl-4,10,12,16,22,24-hexamethyl-1,7,13,19-tetraoxa-4,10,16,22-tetraazacyclotetracosan-2,5,8,11,14,17,20,23-octaone] | 0.01 to 0.1 µM
10 | Cc1nn(Cc2ccc(C[C@H]3OC(=O)[C@H](CC(C)C)N(C)C(=O)[C@@H](C)OC(=O)[C@H](CC(C)C)N(C)C(=O)[C@@H](Cc4ccccc4)OC(=O)[C@H](CC(C)C)N(C)C(=O)[C@@H](C)OC(=O)[C@H](CC(C)C)N(C)C3=O)cc2)c(C)c1S(=O)(=O)N1CCCCC1 [Example 2-60, (3S,6R,9S,12R,15S,18R,21S,24R)-6-benzyl-18-(4-((3,5-dimethyl-4-(piperidin-1-ylsulfonyl)-1H-pyrazol-1-yl)methyl)benzyl)-3,9,15,21-tetraisobutyl-4,10,12,16,22,24-hexamethyl-1,7,13,19-tetraoxa-4,10,16,22-tetraazacyclotetracosan-2,5,8,11,14,17,20,23-octaone] | 0.01 to 0.1 µM
11 | CC(C)C[C@H]1C(=O)O[C@H](Cc2ccc(CN3CCSc4ncccc43)cc2)C(=O)N(C)[C@@H](CC(C)C)C(=O)O[C@H](C)C(=O)N(C)[C@@H](CC(C)C)C(=O)O[C@H](Cc2ccccc2)C(=O)N(C)[C@@H](CC(C)C)C(=O)O[C@H](C)C(=O)N1C [Example 10-35, (3S,6R,9S,12R,15S,18R,21S,24R)-6-benzyl-18-[[4-(2,3-dihydropyrido[2,3-b][1,4]thiazin-1-ylmethyl)phenyl]methyl]-3,9,15,21-tetraisobutyl-4,10,12,16,22,24-hexamethyl-1,7,13,19-tetraoxa-4, 10,16,22-tetrazacyclotetracosane-2,5,8,11,14,17,20,23-octaone] | 0.01 to 0.1 µM
12 | CCOc1cc(CC)nn1Cc1ccc(C[C@H]2OC(=O)[C@H](CC(C)C)N(C)C(=O)[C@@H](C)OC(=O)[C@H](CC(C)C)N(C)C(=O)[C@@H](Cc3ccc(Cn4nc(CC)cc4OCC)cc3)OC(=O)[C@H](CC(C)C)N(C)C(=O)[C@@H](C)OC(=O)[C@H](CC(C)C)N(C)C2=O)cc1 [Example 1b-169, (3S,6R,9S,12R,15S,18R,21S,24R)-6,18-bis(4-((5-ethoxy-3-ethyl-1H-pyrazol-1-yl)methyl)benzyl)-3,9,15,21-tetraisobutyl-4,10,12,16,22,24-hexamethyl-1,7,13,19-tetraoxa-4,10,16,22-tetraazacyclotetracosan-2,5,8,11,14,17,20,23-octaone] | 0.01 to 0.1 µM
13 | CC(C)C[C@H]1C(=O)O[C@H](Cc2ccc(Cn3cc(-c4cn(C)nn4)cn3)cc2)C(=O)N(C)[C@@H](CC(C)C)C(=O)O[C@H](C)C(=O)N(C)[C@@H](CC(C)C)C(=O)O[C@H](Cc2ccccc2)C(=O)N(C)[C@@H](CC(C)C)C(=O)O[C@H](C)C(=O)N1C [Example 2-84, (3S,6R,9S,12R,15S,18R,21S,24R)-6-benzyl-3,9,15,21-tetraisobutyl-4,10,12,16,22,24-hexamethyl-18-(4-((4-(1-methyl-1H-1,2,3-triazol-4-yl)-1H-pyrazol-1-yl)methyl)benzyl)-1,7,13,19-tetraoxa-4,10,16,22-tetraazacyclotetracosan-2,5,8,11,14,17,20,23-octaone] | 0.01 to 0.1 µM
14 | CC(C)C[C@H]1C(=O)O[C@H](Cc2ccc(Cn3cc(C(F)(F)F)cn3)cc2)C(=O)N(C)[C@@H](CC(C)C)C(=O)O[C@H](C)C(=O)N(C)[C@@H](CC(C)C)C(=O)O[C@H](Cc2ccccc2)C(=O)N(C)[C@@H](CC(C)C)C(=O)O[C@H](C)C(=O)N1C [Example 2-20, (3S,6R,9S,12R,15S,18R,21S,24R)-6-benzyl-3,9,15,21-tetraisobutyl-4,10,12,16,22,24-hexamethyl-18-(4-((4-(trifluoromethyl)-1H-pyrazol-1-yl)methyl)benzyl)-1,7,13,19-tetraoxa-4,10,16,22-tetraazacyclotetracosan-2,5,8,11,14,17,20,23-octaone] | 0.01 to 0.1 µM
